Assays:
[1] = tested on: ovarian carcinoma cell line A2780; assay: MTT colorimetric cell growth assay (Mossman), A2780; type: cell-based, human; conditions: 48 hour MTT assay
Text: (§1) A human ovarian carcinoma cell line A2780 and its cis-platin-resistant derivative 2780CP ( see Masuda et al., Cancer Res., 50, 1863-1866, 1990), an EJ bladder carcinoma cell line (Accession No.85061108, European Collection of Animal Cell Cultures, Porton Down, UK ) and Rat-1 fibroblasts (Lania et al., Virology, 101, 217-232, 1980) were continuously maintained in RPMI 1640 medium (GIBCOBRL, Life technologies Ltd, Paisley, Scotland) supplemented with 10% FCS (foetal calf serum - ICN Flow, Thane, Oxfordshire, England), 2mM glutamine, and the antibiotics, penicillin (1000 U/ml) and streptomycin (1mg/ml) (Sigma Co. Ltd, Poole, Dorset, England) at 37°C in a 5% CO2 atmosphere.
(§2) Inhibition of cell proliferation was evaluated using the colorimetric assay of Mossman (see Mossman, J. Immunol. Meths., 65, 55-63, 1983). […] Various concentrations of G28.5 mAb were then added and their effect on cell growth was evaluated after an appropriate period of time (48, 72 or 96 hrs) by the addition of 20 µl of 5 mg/ml MTT (3-([…])-2,5-diphenyl tetrazolium bromide) obtained from Sigma, in PBS. The cells were further incubated for 5 hrs at 37°C, formazan crystals thus formed were dissolved in DMSO and the optical density (O.D.) was recorded at 550nm on a Becton Dickinson Multiscan. […] After 48 hours, cell growth was assessed using the MTT assay as described above. […]

[2] = tested on: Rat-1/CD40 CI.8 cell line; assay: MTT colorimetric cell growth assay (Mossman), CD40-transfected Rat-1 fibroblasts; type: cell-based
Text: as §1, with “atmosphere. […]” for “atmosphere.”
as §2

**Q.** Which cell killing effect ([1]; 5 µM cis-platin alone) does the source give for `N.N.[Cl][Pt][Cl]` [cis-platin] here?
**A.** The cell killing effect was 46%.

**Q.** What about the cell killing effect ([1]; 5 µM cis-platin with 10 µg/ml G28.5 mAb) of the same compound?
**A.** Its cell killing effect is 61%.

**Q.** And the IC50 ([2]; cis-platin with 1 µg/ml G28.5 mAb, spread +/- 0.3)?
**A.** The IC50 was 4.2 µM.

**Q.** What about the IC50 ([2]; cis-platin without G28.5 mAb, spread +/- 0.9) of the same compound?
**A.** Its IC50 is 6 µM.
